Values quoted from earlier work in patent US12611671B2, “Methods, systems and kits for in-pen assays” (Bruker Cellular Analysis, Inc., priority 2016, dated 2026).

Molecular target: IgG
Details: (Fc); read-out: Affinity for IgG

## DCAWHLGELVWCT [CPD 4, Asp Cys Ala Trp His Leu Gly Glu Leu Val Trp Cys Thr]
  Kd: 100 nM
